Data set [1] addresses T1, Sucrase (Rattus norvegicus, UniProt P23739).
T1 construct: Sucrase was prepared from the mucous membrane of the small intestines of Wistar rats; from tissue; host or cells: mucous membrane of the small intestine of Wistar rats
Put plainly: Sucrase activity inhibition (Dahlquist enzyme preparation, Bernfeld sugar determination). The class given is biochemical, Wistar rats. The note with it: for Inhibition (%): final concentration of 5x10⁻⁴ M, substrate 60mM sucrose solution, 37 °C for 15 minutes, control (distilled water) = 100% activity; for sucrase activity inhibiting capacity: verbal summary of Table 1, 5x10⁻⁴ M. As for the experimental part: The value thus measured was converted into the amount of decomposed sucrose, and the reaction speed was calculated using a standard method. The reaction speed of the control case (where distilled water was added instead of the sample solution) was also obtained in the same manner. Sucrase activity in the control case was calculated to be 100%. The percentage inhibition of the samples, each at a final concentration of 5x10⁻⁴ M, were obtained.

Data set [2] relates to male ICR mice. The experiment in a line: Acute toxicity test (LD50 by Van der Waerden method). The note with it: intraabdominal administration. The class given is in vivo. Here is the method: An acute toxicity test of the sucrase activity inhibitor of the present invention was carried out using male ICR mice. LD₅₀ was calculated by the Van der Waerden method.

10 compounds from EP0522502A1, “Inhibitors of sucrase activity from tea” (MITSUI NORIN CO., LTD., priority 1991, dated 1993) can be followed below.

T1 sequence (P23739 whole entry): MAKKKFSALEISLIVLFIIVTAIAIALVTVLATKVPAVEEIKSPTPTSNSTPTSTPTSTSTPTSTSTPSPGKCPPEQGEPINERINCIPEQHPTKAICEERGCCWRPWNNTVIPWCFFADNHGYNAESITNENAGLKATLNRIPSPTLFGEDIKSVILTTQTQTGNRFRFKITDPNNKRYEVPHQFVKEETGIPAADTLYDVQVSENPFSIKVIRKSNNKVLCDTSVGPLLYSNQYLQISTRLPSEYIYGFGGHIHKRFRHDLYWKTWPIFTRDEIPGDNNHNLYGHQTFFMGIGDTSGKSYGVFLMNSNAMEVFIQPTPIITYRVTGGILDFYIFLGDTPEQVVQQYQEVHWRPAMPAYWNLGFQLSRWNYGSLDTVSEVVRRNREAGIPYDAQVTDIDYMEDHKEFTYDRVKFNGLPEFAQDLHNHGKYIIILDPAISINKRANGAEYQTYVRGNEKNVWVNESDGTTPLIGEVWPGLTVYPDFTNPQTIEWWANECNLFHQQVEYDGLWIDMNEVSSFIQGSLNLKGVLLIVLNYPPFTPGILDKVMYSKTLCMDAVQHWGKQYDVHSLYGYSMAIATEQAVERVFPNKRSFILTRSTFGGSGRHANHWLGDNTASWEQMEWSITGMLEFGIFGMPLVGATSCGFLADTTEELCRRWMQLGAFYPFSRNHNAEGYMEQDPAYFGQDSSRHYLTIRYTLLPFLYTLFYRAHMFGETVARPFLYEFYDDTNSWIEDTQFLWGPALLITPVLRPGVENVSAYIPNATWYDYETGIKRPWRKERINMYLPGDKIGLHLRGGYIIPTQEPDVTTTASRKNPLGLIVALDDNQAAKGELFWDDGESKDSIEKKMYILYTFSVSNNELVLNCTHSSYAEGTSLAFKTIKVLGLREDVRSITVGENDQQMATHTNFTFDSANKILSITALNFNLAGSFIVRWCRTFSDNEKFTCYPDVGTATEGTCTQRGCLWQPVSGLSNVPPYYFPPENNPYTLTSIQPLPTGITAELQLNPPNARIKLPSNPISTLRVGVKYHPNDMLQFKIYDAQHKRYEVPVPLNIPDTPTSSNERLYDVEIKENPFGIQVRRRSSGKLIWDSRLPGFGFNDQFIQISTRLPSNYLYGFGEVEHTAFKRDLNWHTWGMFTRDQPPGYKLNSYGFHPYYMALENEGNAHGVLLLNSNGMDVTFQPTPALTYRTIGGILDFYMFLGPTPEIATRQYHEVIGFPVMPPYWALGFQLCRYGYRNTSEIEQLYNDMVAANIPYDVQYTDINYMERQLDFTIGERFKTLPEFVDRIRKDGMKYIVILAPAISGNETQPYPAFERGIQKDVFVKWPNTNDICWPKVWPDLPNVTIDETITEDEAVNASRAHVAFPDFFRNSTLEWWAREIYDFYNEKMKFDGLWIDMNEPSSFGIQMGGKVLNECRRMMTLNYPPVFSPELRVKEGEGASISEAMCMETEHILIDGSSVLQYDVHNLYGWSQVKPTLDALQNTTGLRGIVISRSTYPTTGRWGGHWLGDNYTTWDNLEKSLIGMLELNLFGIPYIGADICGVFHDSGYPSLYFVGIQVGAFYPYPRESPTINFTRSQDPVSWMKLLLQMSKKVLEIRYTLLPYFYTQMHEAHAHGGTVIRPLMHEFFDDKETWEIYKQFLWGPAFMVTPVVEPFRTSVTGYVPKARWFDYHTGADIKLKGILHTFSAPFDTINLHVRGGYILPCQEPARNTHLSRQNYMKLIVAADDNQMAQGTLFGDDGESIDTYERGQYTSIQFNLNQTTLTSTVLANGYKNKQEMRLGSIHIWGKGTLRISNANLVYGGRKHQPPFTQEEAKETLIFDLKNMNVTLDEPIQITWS

For the compound `Oc1cc(O)c2c(c1)O[C@H](c1ccc(O)c(O)c1)[C@@H](O)C2` [(+)Catechin, reference compound], the “Inhibition (%)” value in data set [1] is on record as 13.7%.
With `O=C(O[C@@H]1Cc2c(O)cc(O)cc2O[C@@H]1c1ccc(O)c(O)c1)c1cc(O)c(O)c(O)c1` [Epicatechin Gallate, (-) Epicatechin Gallate], the “Inhibition (%)” value in data set [1] stood at 62.5%.
With `Oc1cc(O)c2c(c1)O[C@H](c1ccc(O)c(O)c1)[C@H](O)C2` [Epicatechin, (-) Epicatechin], in data set [1], the “Inhibition (%)” value was determined as 14.7% and the “sucrase activity inhibiting capacity” value is on record as “only slight”.
For the compound `O=C(O[C@@H]1Cc2c(O)cc(O)cc2O[C@@H]1c1cc(O)c(O)c(O)c1)c1cc(O)c(O)c(O)c1` [Epigallocatechin Gallate, (-) Epigallocatechin Gallate], in data set [2], the “LD₅₀(reliable limit)” value is on record as 150 mg/kg. Moreover, the “Inhibition (%)” value in data set [1] worked out at 78.8%.
With `Oc1cc(O)c2c(c1)O[C@H](c1cc(O)c(O)c(O)c1)[C@H](O)C2` [Epigallocatechin, (-) Epigallocatechin], in data set [1], the “Inhibition (%)” value was found to be 17.3% and the “sucrase activity inhibiting capacity” value is “only slight”.
For `O=c1c(O)cc([C@H]2Oc3cc(O)cc(O)c3C[C@H]2O)cc2c([C@H]3Oc4cc(O)cc(O)c4C[C@H]3O)cc(O)c(O)c12` [Free Theaflavin] the same measures were 6.8% and “only slight”.
For the compound `O=C(O)c1cc(O)c(O)c(O)c1` [Gallic Acid, reference compound], the “Inhibition (%)” value in data set [1] came to 6.7%.
Same read-out and setting: for `O=C(O[C@@H]1Cc2c(O)cc(O)cc2O[C@@H]1c1cc(O)c(=O)c2c(O)c(O)cc([C@H]3Oc4cc(O)cc(O)c4C[C@H]3OC(=O)c3cc(O)c(O)c(O)c3)c2c1)c1cc(O)c(O)c(O)c1` [Theaflavin Digallate] the value was 95.9%; for `O=C(O[C@@H]1Cc2c(O)cc(O)cc2O[C@@H]1c1cc(O)c(=O)c2c(O)c(O)cc([C@H]3Oc4cc(O)cc(O)c4C[C@H]3O)c2c1)c1cc(O)c(O)c(O)c1` [Theaflavin Monogallate A], 45.9%; for `O=C(O[C@@H]1Cc2c(O)cc(O)cc2O[C@@H]1c1cc(O)c(O)c2c(=O)c(O)cc([C@H]3Oc4cc(O)cc(O)c4C[C@H]3O)cc12)c1cc(O)c(O)c(O)c1` [Theaflavin Monogallate B], 59.5%.
